Experimental data published in patent publication US9486440B2, “Uses of indole-ketones or indolidones as neuro-protective drugs” (UNIVERSITY OF MACAU, priority 2011, dated 2016).

What was measured:
[1] = target: T1, recombinant human inducible NOS (iNOS) (Homo sapiens, UniProt P35228); test: In vitro NOS activity assay, iNOS; type: biochemical; conditions: up to 1 mM
T1 construct: purchased Alexis Biochemicals (Lausen, Switzerland)
Method: In the in vitro NOS activity assay (Li et al., 2007), purified recombinant human nNOS, endothelial NOS (eNOS), and inducible NOS (iNOS) were bought from Alexis Biochemicals (Lausen, Switzerland). NOS activity was determined by monitoring the conversion of L-[3H]arginine to [3H]citrulline following the instructions provided in the kit (Calbiochem, USA). The reaction mixture contained a final volume of 40 μl with 25 mM Tris-Cl at pH 7.4, 3 μM tetrahydrobiopterin, 1 μM FAD, 1 μM FMN, 1 mM NADPH, 0.6 mM CaCl2, 0.1 μM calmodulin, 2.5 μg of pure NOS enzyme, 5 μl L-[3H]arginine (Perkin Elmer, Waltham, Mass., USA), and different concentrations of the tested reagents. The reaction mixture was incubated at 22° C. for 45 min. The reaction was quenched by adding 400 μl of stopping buffer (50 mM HEPES, pH 5.5, and 5 mM EDTA) for nNOS and eNOS reactions or by heating reactive tubes for iNOS. Unreacted L-[3H]arginine was then trapped by 100 μl of equilibrated resin provided in a spin cup followed by centrifugation for 30 s at 13,200 rpm. The filtrate was quantified by liquid scintillation counting.

[2] = system: dopaminergic neurons in zebrafish larval; test: MPTP zebrafish, TH-positive neuron count in paraffin sections; type: in vivo
Method: Healthy zebrafish embryos were picked and dechorionated manually at 1 day post fertilization (dpf) then distributed into a 12-well plate with 20 fish embryos or a 6-well microplate with 30 fish embryos in each well. In pilot experiments, several doses of MPTP were added to embryo medium (final concentration from 50 to 800 μM) and 1 dpf fish embryo were treated for 48 hours, The optimal dose used (200 μM) induced a significant decrease in brain diencephalic dopaminergic neurons without any detectable systematic toxicity (data not shown). Thus subsequent studies were performed with 200 μM MPTP for whole-mount immunostaining and gene expression experiments.
After drug treatment, fixation of zebrafish larval was performed as the procedure in whole-mount immunostaining. The fixed specimens were then mounted on 1% agarose blocks in a common linear plane to ensure that the microtome blade passes through each specimen simultaneously. The specimen-containing agarose was converted into a sectionable paraffin wax block and conducted processes as described by Sabaliauskas et al., 2006. […] The results were analyzed by counting the numbers of TH-positive cells at ×20 magnifications on a stereomicroscope (BX51, Olympus Corp. Japan). TH-positive cells in 3 matched sections of each zebrafish were counted and averaged. […]

Row | Structure (SMILES) | inhibition of recombinant human iNOS [1] | MPTP-induced loss of dopaminergic neurons (TH-positive neuron count) ([2]; 200 μM MPTP, 1 μM SU5416, 2 days) | number of dopaminergic neurons, drug alone ([2]; without MPTP)
1 | Clc1ccc(Nc2nnc(Cc3ccncc3)c3ccccc23)cc1 [PTK787/ZK222584] | did not inhibit any of the isoforms even at 1 mM | – | –
2 | Cc1cc(C)c(/C=C2\C(=O)Nc3ccccc32)[nH]1 [SU5416, (3Z)-3-[(3,5-dimethyl-1H-pyrrol-2-yl)methylidene]-1,3-dihydro-2H-indol-2-one] | – | obviously prevented the loss of dopaminergic neurons | did not notably alter the number of dopaminergic neurons
